Consider 27 compounds from US8580829B2 (Boehringer Ingelheim International GmbH, priority 2010, dated 2013).

The subject of experiment [1] is synthesis of LTB4 in human whole blood. The experiment is described as follows: human whole blood LTB4 production inhibition assay. It is filed as cell-based. To be noted: heparinized human whole blood, calcimycin 20 μM, read-out: hWB LTB4 IC50. In a few lines: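 LTB4 levels in plasma were measured by antibody-based HTRF after heparinized human whole blood, pretreated with compound (15 min, 37° C), was challenged with 20 μM calcimycin for 30 min at 37° C.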

Experiment [2] concerns the target T1, recombinant human FLAP protein (Homo sapiens, UniProt P20292).
T1 construct: made in house; host or cells: Sf9 insect cells (100,000 x g membrane fraction)
T1 sequence (P20292 1-161): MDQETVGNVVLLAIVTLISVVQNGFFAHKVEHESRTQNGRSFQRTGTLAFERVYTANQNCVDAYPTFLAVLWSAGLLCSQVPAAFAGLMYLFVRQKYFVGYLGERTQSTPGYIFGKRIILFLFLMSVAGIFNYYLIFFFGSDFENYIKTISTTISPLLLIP
Put plainly: FLAP binding assay (Scintillation Proximity Assay, displacement of [125I]L-691,831). The conditions noted are these: recombinant human FLAP membranes, [125I]L-691,831 probe; read-out: FLAP SPA IC50. The method in brief: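 Membranes came from Sf9 insect cells expressing recombinant human FLAP, collected as the 100,000×g pellet in Tris pH 7.5/MgCl2/EDTA buffer. 5 μg membrane protein was coupled to WGA SPA beads for 1 h.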
For orientation: Scintillation proximity formats need no separation of bound from free tracer.

pIC50: −log10 of the molar value. Like-named read-outs stand apart in the source and are kept apart here.

A word on the pIC50: it is the IC50 on a negative log10 scale, so that one unit is a factor of ten. In the case of `CNC(=O)n1cc(-c2nc(C3(c4ccc(-c5cnc(N)nc5)cc4)CCC3)no2)cn1` [Example 213, 4-(3-{1-[4-(2-Amino-pyrimidin-5-yl)-phenyl]-cyclobutyl}-[1,2,4]oxadiazol-5-yl)-pyrazole-1-carboxylic acid methylamide], the figures for the pIC50 in experiment [1] (Homo sapiens) and in experiment [2] were 6.96 and 9.07, respectively.

On to `CC(C(=O)N(C)C)n1cc(-c2nc(C3(c4ccc(-c5cnc(N)nc5)cc4)CCC3)no2)cn1` (stereo not drawn) [Example 133, 2-[4-(3-{1-[4-(2-Amino-pyrimidin-5-yl)-phenyl]-cyclobutyl}-1,2,4-oxadiazol-5-yl)-pyrazol-1-yl]-N,N-dimethyl-propionamide], for which the pIC50 in experiment [1] (Homo sapiens) was 7.14; in experiment [2] it was 8.37.

As for `Nc1ncc(-c2ccc(C3(c4noc(-c5ccc(NCCO)nn5)n4)CCC3)cc2)cn1` [Example 112, 2-[6-(3-{1-[4-(2-Amino-pyrimidin-5-yl)-phenyl]-cyclobutyl}-1,2,4-oxadiazol-5-yl)-pyridazin-3-ylamino]-ethanol], the pIC50 is 6.12 in experiment [1] (Homo sapiens) and 8.85 in experiment [2].

Regarding `COC1CCN(C(=O)Cn2cc(-c3nc(C4(c5ccc(-c6cnc(N)nc6)cc5)CCC4)no3)cn2)C1` (stereo not drawn) [Example 210, 2-[4-(3-{1-[4-(2-Amino-pyrimidin-5-yl)-phenyl]-cyclobutyl}-[1,2,4]oxadiazol-5-yl)-pyrazol-1-yl]-1-(3-methoxy-pyrrolidin-1-yl)-ethanone], the pIC50 is 6.96 in experiment [1] (Homo sapiens) and 8.34 in experiment [2].

On to `Nc1ncc(-c2ccc(C3(c4noc(-c5cnn(CCN6CCCC6=O)c5)n4)CCC3)cc2)cn1` [Example 216, 1-{2-[4-(3-{1-[4-(2-Amino-pyrimidin-5-yl)-phenyl]-cyclobutyl}-[1,2,4]oxadiazol-5-yl)-pyrazol-1-yl]-ethyl}-pyrrolidin-2-one], for which the pIC50 in experiment [1] (Homo sapiens) was 7.23; in experiment [2] it was 8.89.

Regarding `Cn1cc(-c2nc(C3(c4ccc(-c5cnc(N)nc5)cc4F)CCC3)no2)cn1` [Example 117, 5-(3-Fluoro-4-{1-[5-(1-methyl-1H-pyrazol-4-yl)-1,2,4-oxadiazol-3-yl]-cyclobutyl}-phenyl)-pyrimidin-2-ylamine], the figures for the pIC50 in experiment [1] (Homo sapiens) and in experiment [2] were 6.85 and 8.59, respectively.

`Cn1cc(-c2nc(C3(c4ccc(-c5cnc(N)cn5)cc4)CCC3)no2)cn1` [Example 220, 5-(4-{1-[5-(1-Methyl-1H-pyrazol-4-yl)-[1,2,4]oxadiazol-3-yl]-cyclobutyl}-phenyl)-pyrazin-2-ylamine]: the pIC50 is 7.80 in experiment [1] (Homo sapiens) and 9.15 in experiment [2].

With `Nc1ncc(-c2ccc(C3(c4noc(-c5ccc(=O)[nH]c5)n4)CCC3)cc2)cn1` [Example 91, 5-(3-{1-[4-(2-Amino-pyrimidin-5-yl)-phenyl]-cyclobutyl}-1,2,4-oxadiazol-5-yl)-1H-pyridin-2-one], the values for the pIC50 in experiment [1] (Homo sapiens) and in experiment [2] were 6.82 and 8.43, respectively.

`CC(C)CNC(=O)Cn1cc(-c2nc(C3(c4ccc(-c5cnc(N)nc5)cc4)CCC3)no2)cn1` [Example 217, 2-[4-(3-{1-[4-(2-Amino-pyrimidin-5-yl)-phenyl]-cyclobutyl}-[1,2,4]oxadiazol-5-yl)-pyrazol-1-yl]-N-isobutyl-acetamide]: the results for the pIC50 in experiment [1] (Homo sapiens) and in experiment [2] were 7.09 and 8.47, respectively.

Take `Nc1ncc(-c2ccc(C3(c4noc(-c5cnn(CCN6CCCC6)c5)n4)CCC3)cc2)cn1` [Example 253, 5-[4-(1-{5-[1-(2-Pyrrolidin-1-yl-ethyl)-1H-pyrazol-4-yl]-[1,2,4]oxadiazol-3-yl}-cyclobutyl)-phenyl]-pyrimidin-2-ylamine]: the pIC50 in experiment [1] (Homo sapiens) is 7.12; in experiment [2] it was 8.09.

As to `CC(C)(O)CNc1cnc(-c2nc(C3(c4ccc(-c5cnc(N)nc5)cc4)CCC3)no2)cn1` [Example 120, 1-[5-(3-{1-[4-(2-Amino-pyrimidin-5-yl)-phenyl]-cyclobutyl}-1,2,4-oxadiazol-5-yl)-pyrazin-2-ylamino]-2-methyl-propan-2-ol], the pIC50 is 6.13 in experiment [1] (Homo sapiens) and 8.04 in experiment [2].

Take `CCn1cnc(-c2nc(C3(c4ccc(-c5cnc(N)nc5)cc4)CCC3)no2)c1` [Example 87, 5-(4-{1-[5-(1-Ethyl-1H-imidazol-4-yl)-1,2,4-oxadiazol-3-yl]-cyclobutyl}-phenyl)-pyrimidin-2-ylamine]: the pIC50 is 6.82 in experiment [1] (Homo sapiens) and 8.35 in experiment [2].

For `Cn1cncc1-c1nc(C2(c3ccc(-c4cnc(N)nc4)cc3)CCC2)no1` [Example 176, 5-(4-{1-[5-(3-Methyl-3H-imidazol-4-yl)-1,2,4-oxadiazol-3-yl]-cyclobutyl}-phenyl)-pyrimidin-2-ylamine], the pIC50 was 6.39 in experiment [1] (Homo sapiens) and 8.25 in experiment [2].

Turning to `Nc1ncc(-c2ccc(C3(c4noc(-c5ccc(N6CCS(=O)(=O)CC6)nc5)n4)CCC3)cc2)cn1` [Example 107, 5-[4-(1-{5-[6-(1,1-Dioxo-1λ^6-thiomorpholin-4-yl)-pyridin-3-yl]-1,2,4-oxadiazol-3-yl}-cyclobutyl)-phenyl]-pyrimidin-2-ylamine], the negative-log IC50 (pIC50) in experiment [1] (Homo sapiens) was 7.01; in experiment [2], 8.85.

On to `CS(=O)(=O)N1CCN(c2ccc(-c3nc(C4(c5ccc(-c6cnc(N)nc6)cc5)CCC4)no3)cn2)CC1` [Example 109, 5-[4-(1-{5-[6-(4-Methanesulfonyl-piperazin-1-yl)-pyridin-3-yl]-1,2,4-oxadiazol-3-yl}-cyclobutyl)-phenyl]-pyrimidin-2-ylamine], for which the pIC50 in experiment [1] (Homo sapiens) was 7.01; in experiment [2] it was 8.89.

As for `COc1cc(-c2nc(C3(c4ccc(-c5cnc(N)nc5)cc4)CCC3)no2)ccn1` [Example 174, 5-(4-{1-[5-(2-Methoxy-pyridin-4-yl)-1,2,4-oxadiazol-3-yl]-cyclobutyl}-phenyl)-pyrimidin-2-ylamine], the negative-log IC50 (pIC50) is 6.29 in experiment [1] (Homo sapiens) and 8.28 in experiment [2].

On to `CCNc1cnc(-c2nc(C3(c4ccc(-c5cnc(N)nc5)cc4)CCC3)no2)cn1` [Example 63, 5-(4-{1-[5-(5-Ethylamino-pyrazin-2-yl)-1,2,4-oxadiazol-3-yl]-cyclobutyl}-phenyl)-pyrimidin-2-ylamine], for which the pIC50 is 7.60 in experiment [1] (Homo sapiens) and 9.00 in experiment [2].

In the case of `COC(=O)[C@H]1CN(c2cnc(-c3nc(C4(c5ccc(-c6cnc(N)nc6)cc5)CCC4)no3)cn2)CCN1` [Example 125, (R)-5′-(3-{1-[4-(2-Amino-pyrimidin-5-yl)-phenyl]-cyclobutyl}-1,2,4-oxadiazol-5-yl)-3,4,5,6-tetrahydro-2H-1,2′-bipyrazinyl-3-carboxylic acid methyl ester], the results for the pIC50 in experiment [1] and in experiment [2] were below 5.30 and 8.30, respectively.

`CCOC(=O)CCN1CCN(c2ccc(-c3nc(C4(c5ccc(-c6cnc(N)nc6)cc5)CCC4)no3)cn2)CC1` [Example 106, 3-{4-[5-(3-{1-[4-(2-Amino-pyrimidin-5-yl)-phenyl]-cyclobutyl}-1,2,4-oxadiazol-5-yl)-pyridin-2-yl]-piperazin-1-yl}-propionic acid ethyl ester]: the pIC50 in experiment [1] (Homo sapiens) was 6.89; in experiment [2] it was 8.57.

With `N#Cc1ccc(-c2nc(C3(c4ccc(-c5cnc(N)nc5)cc4)CCC3)no2)cc1` [Example 42, 4-(3-{1-[4-(2-Amino-pyrimidin-5-yl)-phenyl]-cyclobutyl}-1,2,4-oxadiazol-5-yl)-benzonitrile], the values for the pIC50 in experiment [1] (Homo sapiens) and in experiment [2] were 6.16 and 8.08, respectively.

Regarding `CC(C)(O)Cc1nc(C2(c3ccc(-c4cnc(N)nc4)cc3)CCC2)no1` [Example 278, 1-(3-{1-[4-(2-Amino-pyrimidin-5-yl)-phenyl]-cyclobutyl}-[1,2,4]oxadiazol-5-yl)-2-methyl-propan-2-ol], the results for the pIC50 in experiment [1] (Homo sapiens) and in experiment [2] were 5.77 and 7.11, respectively.

`CC(C)(O)c1ccc(-c2nc(C3(c4ccc(-c5cnc(N)nc5)cc4)CCC3)no2)cn1` [Example 172]: the results for the pIC50 in experiment [1] (Homo sapiens) and in experiment [2] were 6.59 and 8.37, respectively.

As to `Nc1ncc(-c2ccc(C3(c4noc(-c5cccnn5)n4)CCC3)cc2)cn1` [Example 8, 5-{4-[1-(5-Pyridazin-3-yl-1,2,4-oxadiazol-3-yl)-cyclobutyl]-phenyl}-pyrimidin-2-ylamine], the values for the pIC50 in experiment [1] (Homo sapiens) and in experiment [2] were 6.40 and 8.07, respectively.

Regarding `Cn1ccnc1-c1nc(C2(c3ccc(-c4cnc(N)nc4)cc3)CCC2)no1` [Example 245, 5-(4-{1-[5-(1-Methyl-1H-imidazol-2-yl)-[1,2,4]oxadiazol-3-yl]-cyclobutyl}-phenyl)-pyrimidin-2-ylamine], the pIC50 is 5.77 in experiment [1] (Homo sapiens) and 7.42 in experiment [2].

For the compound `Nc1ncc(-c2ccc(C3(c4noc(-c5ccccc5)n4)CCOCC3)cc2)cn1` [Example 149, 5-{4-[4-(5-Phenyl-1,2,4-oxadiazol-3-yl)-tetrahydro-pyran-yl]-phenyl}-pyrimidin-2-ylamine], the pIC50 was below 5.30 in experiment [1] (Homo sapiens) and 7.82 in experiment [2].

Turning to `COc1cccc(-c2nc(C3(c4ccc(-c5cnc(N)nc5)cc4)CCC3)no2)c1` [Example 49, 5-(4-{1-[5-(3-Methoxy-phenyl)-1,2,4-oxadiazol-3-yl]-cyclobutyl}-phenyl)-pyrimidin-2-ylamine], the pIC50 was 6.18 in experiment [1] (Homo sapiens) and 8.43 in experiment [2].

For `Nc1ccc(-c2ccc(C3(c4noc(-c5cnc(N6CCNCC6)cn5)n4)CCC3)cc2)cn1` [Example 296, 5-(4-{1-[5-(3,4,5,6-Tetrahydro-2H-[1,2′]bipyrazinyl-5′-yl)-[1,2,4]oxadiazol-3-yl]-cyclobutyl}-phenyl)-pyridin-2-ylamine], the pIC50 was 6.64 in experiment [1] (Homo sapiens) and 8.68 in experiment [2].
